The assay has as its target T1, gp16 (eGFP-gp16), phi29 DNA packaging motor ATPase (Bacillus phage phi29, UniProt P11014).
T1 sequence (P11014 1-332): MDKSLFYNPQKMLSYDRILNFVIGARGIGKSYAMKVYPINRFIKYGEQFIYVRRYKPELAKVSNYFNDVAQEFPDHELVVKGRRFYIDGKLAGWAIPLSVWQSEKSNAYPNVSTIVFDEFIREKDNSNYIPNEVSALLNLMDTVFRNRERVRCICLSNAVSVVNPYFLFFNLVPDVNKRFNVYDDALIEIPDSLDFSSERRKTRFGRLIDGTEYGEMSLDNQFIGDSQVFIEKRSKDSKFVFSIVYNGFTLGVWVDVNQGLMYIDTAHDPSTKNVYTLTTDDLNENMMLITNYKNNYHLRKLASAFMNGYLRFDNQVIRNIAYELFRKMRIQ
The conditions noted are these: without and with saturating dsDNA.

Molecules are shown by their SMILES.

Regarding `Nc1ncnc2c1ncn2[C@@H]1O[C@H](COP(=O)(O)OP(=O)(O)OP(=O)(O)O)[C@@H](O)[C@H]1O` [ATP], the “fluorescence ATPase assay” value is given as “each subunit of gp16 is able to hydrolyze ATP independently”.

The values are drawn from publication PMC3850062 (Virology, 2013).
